Calls of active or inactive are those of the source. The rule behind the calls is not given here.
Key:
[1] = Antioxidant activity assessed as reducing capacity of DTNB at 20 uM after 30 mins in presence of Cu2++; type: functional; set-up: scale not given: the % may be the effect or the level left
[2] = Antioxidant activity assessed as ABTS radical scavenging activity at 4 uM after 3 mins in presence of Cu2+; type: functional
[3] = Induction of ascorbic acid oxidation preincubated for 30 mins in presence of Cu2++; type: physicochemical; set-up: concentration or dose not given beside the values; conditions: 0.5 h
[4] = tested on: Radical scavenging activity; experiment: Antioxidant activity assessed as DPPH radical scavenging activity after 40 mins in absence of Cu2+; type: functional
[5] = Induction of ascorbic acid oxidation preincubated for 300 mins in presence of Cu2++; type: physicochemical; set-up: concentration or dose not given beside the values; conditions: 5 h
[6] = Induction of ascorbic acid oxidation preincubated for 60 mins in presence of Cu2++; type: physicochemical; set-up: concentration or dose not given beside the values; conditions: 1 h
[7] = Induction of ascorbic acid oxidation preincubated for 3 mins in presence of Cu2++; type: physicochemical; set-up: concentration or dose not given beside the values; conditions: 0.05 h
[8] = Antioxidant activity assessed as ABTS radical scavenging activity at 4 uM after 30 mins in presence of Cu2++; type: functional
[9] = tested on: Radical scavenging activity; experiment: Antioxidant activity assessed as DPPH radical scavenging activity at 36 uM after 30 mins in presence of Cu2++; type: functional
[10] = Antioxidant activity assessed as ABTS radical scavenging activity after 30 mins in absence of Cu2+; type: functional
[11] = Antioxidant activity assessed as reducing capacity of Iodine solution at 0.25mM after 30 mins in presence of Cu2++; type: functional; set-up: scale not given: the % may be the effect or the level left
[12] = tested on: Radical scavenging activity; experiment: Antioxidant activity assessed as DPPH radical scavenging activity at 36 uM after 3 mins in presence of Cu2++; type: functional
[13] = Effect on CU2+-mediated superoxide-dependent cytochrome c reduction at 10 to 30 uM; type: physicochemical
[14] = Effect on CU2+-mediated superoxide-dependent lucigenin reduction by chemiluminescence assay at 10 to 30 uM; type: physicochemical
[15] = Antioxidant activity assessed as reducing capacity of Iodine solution at 0.25 mM after 60 mins in presence of Cu2++; type: functional
[16] = Antioxidant activity assessed as reducing capacity of Iodine solution at 0.25 mM after 120 mins in presence of Cu2++; type: functional
[17] = Antioxidant activity assessed as reducing capacity of DTNB at 20 uM after 60 mins in presence of Cu2++; type: functional

Row | Structure (SMILES) | Activity [3] | Activity [5] | Activity [6] | Activity [7] | Activity [13] | Activity [14] | Activity [1] | Activity [2] | Activity [4] | Activity [8] | Activity [9] | Activity [10] | Activity [11] | Activity [12] | Activity [15] | Activity [16] | Activity [17]
1 | N[C@@H](CCC(=O)N[C@@H](CS)C(=O)O)C(=O)O | 87.4% | 97.6% | 89.6% | 81.4% | Active |  | 26% | Active | Dose-dependent effect | 29% | 54% | Dose-dependent effect | 24% | Active |  |  | 
2 | N[C@@H](CS)C(=O)O [CYSTEINE] | 77.34% | 80.36% | 80.35% | 74.35% | Active |  | 24% | Active | Dose-dependent effect | 44% | 92% | Dose-dependent effect | 23% | Active |  |  | 
3 | N[C@@H](CS)C(=O)NCC(=O)O | 92.28% | 94.33% | 94.31% | 79.8% | Active | Active | 0% | Active | Dose-dependent effect | 33% | 88% | Dose-dependent effect | 20% | Active | Active | inactive | Active

Now from value to compound, other results behind:

Row | Activity [3] | Activity [5] | Activity [6] | Activity [7] | Activity [13] | Activity [14] | Structure (SMILES) | Activity [1] | Activity [2] | Activity [4] | Activity [8] | Activity [9] | Activity [10] | Activity [11] | Activity [12] | Activity [15] | Activity [16] | Activity [17]
4 | 83.2% | 85.4% | 84.2% | 81.3% | Active | Active | N[C@@H](CCC(=O)N[C@@H](CS)C(=O)NCC(=O)O)C(=O)O [GLUTATHIONE] | 36% | Active | Dose-dependent effect | 55% | 76% | Dose-dependent effect | 31% | Active |  |  | 
5 | 84.1% | 85.3% | 86.1% | 81.1% | Active | Active | N[C@@H](CCS)C(=O)O [L-HOMOCYSTEINE] | 40% | Active | Dose-dependent effect | 31% | 72% | Dose-dependent effect | 30% | Active |  |  | 

Source: ChEMBL document CHEMBL1142539, “Double edge redox-implications for the interaction between endogenous thiols and copper ions: In vitro studies” (Bioorg Med Chem, 2008)
